The results in this text go back to patent publication US12357619B2, “Noradrenergic and specific serotonergic anxiolytic and antidepressant, method for the production and use thereof” (ALLA CHEM, LLC, priority 2020, dated 2025).

Molecules are shown by their SMILES. Like-named read-outs stand apart in the source and are kept apart here.

In data set [1] the target is T1, Adrenergic α1A (Homo sapiens, UniProt P35348).
T1 sequence (P35348 1-466): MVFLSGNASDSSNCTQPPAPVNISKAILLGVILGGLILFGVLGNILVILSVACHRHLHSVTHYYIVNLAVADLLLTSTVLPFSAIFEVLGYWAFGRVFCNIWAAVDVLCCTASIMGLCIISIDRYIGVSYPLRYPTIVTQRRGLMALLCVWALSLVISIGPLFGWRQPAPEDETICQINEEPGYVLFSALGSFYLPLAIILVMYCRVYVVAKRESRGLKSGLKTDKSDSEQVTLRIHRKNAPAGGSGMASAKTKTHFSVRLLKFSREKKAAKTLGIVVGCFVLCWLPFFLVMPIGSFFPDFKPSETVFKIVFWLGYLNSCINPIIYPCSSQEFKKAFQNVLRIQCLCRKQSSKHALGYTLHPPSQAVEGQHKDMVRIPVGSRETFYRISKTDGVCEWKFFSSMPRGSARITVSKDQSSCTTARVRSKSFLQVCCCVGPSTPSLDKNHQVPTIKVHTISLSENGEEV
The data set is described as follows: Receptor activities, Ki (Table 1). Format: binding.

The target of data set [2] is T2, Adrenergic α2C (Homo sapiens, UniProt P18825).
T2 sequence (P18825 1-462): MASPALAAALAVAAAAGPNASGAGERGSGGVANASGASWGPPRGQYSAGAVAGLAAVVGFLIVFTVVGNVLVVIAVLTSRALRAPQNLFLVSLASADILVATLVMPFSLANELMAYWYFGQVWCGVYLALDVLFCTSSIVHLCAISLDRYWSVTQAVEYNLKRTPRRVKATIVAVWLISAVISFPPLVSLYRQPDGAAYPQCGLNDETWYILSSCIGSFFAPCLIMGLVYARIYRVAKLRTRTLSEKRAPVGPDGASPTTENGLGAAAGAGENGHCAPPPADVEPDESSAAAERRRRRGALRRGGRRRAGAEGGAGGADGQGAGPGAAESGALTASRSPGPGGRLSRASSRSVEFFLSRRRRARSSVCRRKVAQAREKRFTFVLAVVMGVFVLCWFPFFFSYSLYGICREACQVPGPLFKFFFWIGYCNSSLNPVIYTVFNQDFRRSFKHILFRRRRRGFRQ
Description: Receptor activities, Ki (Table 1). Format: binding.

The test system of data set [3] is healthy volunteers. Description: Safety, single oral administration of capsules in healthy volunteers (Example 10). The data set is classed as in vivo, human. The protocol:
Example 10. Clinical study of the safety of the oral drug of this invention. An open-label clinical trial of the pharmacokinetics of the antipsychotic drug made as a pharmaceutical composition of this invention in capsules, was conducted with a single oral administration in 32 healthy volunteers at doses of 2 mg/day (cohort 1, 8 volunteers), 4 mg/day (cohort 1, 8 volunteers), 10 mg/day (cohort 1, 8 volunteers), and 20 mg/day (cohort 1, 8 volunteers), expressed as base A, in accordance with the recommendations of “Good clinical practice (GCP)” on physically and mentally healthy men aged 20-50 years with a body mass index of […].

A short description of data set [4]: Pharmacokinetics, single and multiple dosing of capsules in volunteers (Example 11). Format: in vivo, human. The settings on record: for half-life / Tmax: human, in vivo, oral. The protocol:
Example 11. Safety study of increasing doses of the oral drug of this invention made as a pharmaceutical composition of this invention in capsules. Clinical safety study of increasing doses of the antipsychotic drug made as a pharmaceutical composition of this invention in capsules for single and multiple dosing. The study covered one cohort of 4 volunteers taking antipsychotic drug once at a dose of 20 mg, and then at the same dose 2 times a day for 4 days. Based on the three-week safety data obtained in the 20-mg cohort taking antipsychotic drug twice a day, the independent safety data monitoring Committee took a decision to involve a second cohort of 4 volunteers, in which the antipsychotic drug under test was taken once at a dose of 20 mg and then 3 times a day for 4 days at the same dose.

The mark [5] stands for this setting: single doses of 2, 4, 10, and 20 mg, healthy volunteers.

Consider `Cc1ccc2c(c1)c1c(n2CCc2ccccc2)CCN(C)C1.Cl` [A•HCl, 2,8-dimethyl-5-(2-phenylethyl)-2,3,4,5-tetrahydro-1H-pyrido[4,3-b]indole hydrochloride], for which the Ki in data set [1] is 30.2 nM; in data set [2], 3.55 nM. Besides, the Side effects observed result in data set [3] (20-mg cohort, single dose) is “drowsiness, agitation and paresthesia”. Further, in data set [3] (setting [5]), the “Effect on the parameters of plasma and urine” value is “neither significantly affect the parameters of plasma and urine”. Moreover, the Tolerability result in data set [3] (setting [5]) is given as “well tolerated”. Besides, the “Accumulation factor (Fc)” value in data set [4] (40-mg cohort) amounted to 2.5; in data set [4] (60-mg cohort), 2.1. The half-life is 10.3 ± 5.4 h in data set [4] (20 mg, single dose, 40-mg cohort) and 7.3 ± 2.6 h in data set [4] (20 mg, single dose, 60-mg cohort). In addition, the time to peak (Tmax) in data set [4] (20 mg, single dose, 40-mg cohort, read-out: Tmax, median) is 0.75 h; in data set [4] (20 mg, single dose, 60-mg cohort, read-out: Tmax, median), 2.3 h; in data set [4] (20 mg, single dose, majority of volunteers, read-out: Tmax, variation) it was 0.5 to 4 h; in data set [4] (40 mg/day, repeated doses, 40-mg cohort, read-out: Tmax, median), 0.38 h; in data set [4] (60 mg/day, repeated doses, 60-mg cohort, read-out: Tmax, median), 1 h. Further, the “Time to stabilization of the residual concentration after the start of regular drug administration” value in data set [4] (multiple dosing) was in the range of 1 to 2 days. Further, the “Tmax, variability range” value in data set [4] (repeated doses) fell in the range of 0.3 to 4 h. In addition, in data set [4] (repeated vs single administration), the “Increase in T1/2 after repeated administration, on an average” value came to 1.4 times.
